Test results reported in patent publication US20200270309A1, “MALEIMIDE GROUP-MODIFIED ANGIOGENESIS INHIBITOR HM-1 AND USE THEREOF” (NANJING ANJI BIOLOGICAL TECHNOLOGY CO., LTD, priority 2017, published 2020).
Read-outs that look alike come from different tables or passages of the source. Peptide text beside a SMILES is read from it. * marks the point of attachment. Hexanoyl(6-maleimido) = O=C1C=CC(=O)N1CCCCCC(=O)*; X36 = O=C1C=CC(=O)N1c1ccc(CCCCCCCCCCCC(=O)*)cc1; X73 = O=C1C=CC(=O)N1c1ccc(CCCCCCCCCC(=O)*)cc1; X24 = O=C1C=CC(=O)N1CCOCCOCCOCCOCCOCCC(=O)*; X10 = O=C1C=CC(=O)N1CCOCCOCCOCCOCCCC(=O)*; X47 = O=C1C=CC(=O)N1c1ccccc1CCCCC(=O)*; X48 = O=C1C=CC(=O)N1CCCCCCCCCCCC(=O)*; X50 = O=C1C=CC(=O)N1c1ccc(CC(=O)*)cc1; X2 = O=C1C=CC(=O)N1CCOCCOCCCCCC(=O)*; X8 = O=C1C=CC(=O)N1CCOCCOCCCC(=O)*

Assay: Half-lives and pharmacokinetic parameters of polypeptides vs HM-1
Parameters: AUC0-∞: concentration or dose not given beside the values
Conditions: in vivo

Row | SMILES | AUC(0-inf) [ng·h/mL] | MRT inf [h] | clearance [mL/min/kg] | half-life (T1/2β (half-life)) [min] | AUC0-∞ [mg/L/h] | half-life (read-out: T1/2β (half-life) (converted)) [min]
1 | C[C@H](NC(=O)CNC(=O)[C@H](CCCNC(=N)N)NC(=O)CCCCCCCCCCCN1C(=O)C=CC1=O)C(=O)N[C@@H](CC(=O)O)C(=O)N[C@@H](CCCNC(=N)N)C(=O)N[C@@H](C)C(=O)NCC(=O)NCC(=O)NCC(=O)NCC(=O)N[C@@H](CCCNC(=N)N)C(=O)NCC(=O)N[C@@H](CC(=O)O)C(=O)O [X11] (X48-RGADRAGGGGRGD-OH) | 25100 ± 8260 | 44.9 ± 11.6 | 0.665 | 1865 ± 17.4 |  | 
2 | CC[C@H](C)[C@H](NC(=O)[C@H](Cc1c[nH]cn1)NC(=O)[C@H](CCC(N)=O)NC(=O)[C@H](CCCNC(=N)N)NC(=O)CCCCCN1C(=O)C=CC1=O)C(=O)N[C@@H](Cc1ccccc1)C(=O)N1CCC[C@H]1C(=O)N[C@@H](CO)C(=O)N[C@H](C(=O)N[C@@H](Cc1c[nH]c2ccccc12)C(=O)N[C@@H](Cc1ccccc1)C(=O)N[C@@H](Cc1c[nH]c2ccccc12)C(=O)N[C@@H](Cc1ccc(O)cc1)C(=O)N[C@@H](Cc1ccc(O)cc1)C(=O)N1CCC[C@H]1C(=O)N[C@@H](CC(=O)O)C(=O)N[C@@H](CCCNC(=N)N)C(=O)N[C@@H](CC(C)C)C(=O)N[C@@H](CCCCN)C(=O)N[C@@H](CCSC)C(=O)N[C@@H](CCCNC(=N)N)C(=O)N[C@@H](CCC(=O)O)C(=O)N[C@@H](CC(=O)O)C(=O)O)[C@@H](C)O [P4] ({Hexanoyl(6-maleimido)}-RQHIFPSTWFWYYPDRLKMRED-OH; C-terminus assumed) |  |  |  |  | 0.0391 ± 0.0066 | 1903 ± 15.6
3 | C[C@H](NC(=O)CNC(=O)[C@H](CCCNC(=N)N)NC(=O)Cc1ccc(N2C(=O)C=CC2=O)cc1)C(=O)N[C@@H](CC(=O)O)C(=O)N[C@@H](CCCNC(=N)N)C(=O)N[C@@H](C)C(=O)NCC(=O)NCC(=O)NCC(=O)NCC(=O)N[C@@H](CCCNC(=N)N)C(=O)NCC(=O)N[C@@H](CC(=O)O)C(=O)O [X37] (X50-RGADRAGGGGRGD-OH) | 27200 ± 7210 | 48.7 ± 13.6 | 0.612 | 2026 ± 16.8 |  | 
4 | C[C@H](NC(=O)CNC(=O)[C@H](CCCNC(=N)N)NC(=O)CCCCCCCCCc1ccc(N2C(=O)C=CC2=O)cc1)C(=O)N[C@@H](CC(=O)O)C(=O)N[C@@H](CCCNC(=N)N)C(=O)N[C@@H](C)C(=O)NCC(=O)NCC(=O)NCC(=O)NCC(=O)N[C@@H](CCCNC(=N)N)C(=O)NCC(=O)N[C@@H](CC(=O)O)C(=O)O [X45] (X73-RGADRAGGGGRGD-OH) | 24300 ± 8330 | 43.5 ± 12 | 0.685 | 1809 ± 15.6 |  | 
5 | C[C@H](NC(=O)CNC(=O)[C@H](CCCNC(=N)N)NC(=O)CCCCc1ccccc1N1C(=O)C=CC1=O)C(=O)N[C@@H](CC(=O)O)C(=O)N[C@@H](CCCNC(=N)N)C(=O)N[C@@H](C)C(=O)NCC(=O)NCC(=O)NCC(=O)NCC(=O)N[C@@H](CCCNC(=N)N)C(=O)NCC(=O)N[C@@H](CC(=O)O)C(=O)O [X16] (X47-RGADRAGGGGRGD-OH) | 31400 ± 8390 | 56.3 ± 13.6 | 0.53 | 2340 ± 14.4 |  | 

Other lines, results leading:

Row | AUC(0-inf) [ng·h/mL] | MRT inf [h] | clearance [mL/min/kg] | half-life (T1/2β (half-life)) [min] | AUC0-∞ [mg/L/h] | half-life (read-out: T1/2β (half-life) (converted)) [min] | SMILES
6 | 33200 ± 7130 | 59.4 ± 12 | 0.502 | 2471 ± 16.2 |  |  | C[C@H](NC(=O)CNC(=O)[C@H](CCCNC(=N)N)NC(=O)CCCCCCCCCCCc1ccc(N2C(=O)C=CC2=O)cc1)C(=O)N[C@@H](CC(=O)O)C(=O)N[C@@H](CCCNC(=N)N)C(=O)N[C@@H](C)C(=O)NCC(=O)NCC(=O)NCC(=O)NCC(=O)N[C@@H](CCCNC(=N)N)C(=O)NCC(=O)N[C@@H](CC(=O)O)C(=O)O [X47] (X36-RGADRAGGGGRGD-OH)
7 | 29800 ± 8510 | 53.4 ± 9.94 | 0.558 | 2221 ± 18.6 |  |  | C[C@H](NC(=O)CNC(=O)[C@H](CCCNC(=N)N)NC(=O)CCOCCOCCOCCOCCOCCN1C(=O)C=CC1=O)C(=O)N[C@@H](CC(=O)O)C(=O)N[C@@H](CCCNC(=N)N)C(=O)N[C@@H](C)C(=O)NCC(=O)NCC(=O)NCC(=O)NCC(=O)N[C@@H](CCCNC(=N)N)C(=O)NCC(=O)N[C@@H](CC(=O)O)C(=O)O [X78] (X24-RGADRAGGGGRGD-OH)
8 | 33800 ± 7140 | 60.5 ± 12.3 | 0.493 | 2515 ± 17.4 |  |  | C[C@H](NC(=O)CNC(=O)[C@H](CCCNC(=N)N)NC(=O)CCCOCCOCCOCCOCCN1C(=O)C=CC1=O)C(=O)N[C@@H](CC(=O)O)C(=O)N[C@@H](CCCNC(=N)N)C(=O)N[C@@H](C)C(=O)NCC(=O)NCC(=O)NCC(=O)NCC(=O)N[C@@H](CCCNC(=N)N)C(=O)NCC(=O)N[C@@H](CC(=O)O)C(=O)O [X72] (X10-RGADRAGGGGRGD-OH)
9 | 26200 ± 7810 | 47.9 ± 13.5 | 0.635 | 1954 ± 16.8 |  |  | C[C@H](NC(=O)CNC(=O)[C@H](CCCNC(=N)N)NC(=O)CCCOCCOCCN1C(=O)C=CC1=O)C(=O)N[C@@H](CC(=O)O)C(=O)N[C@@H](CCCNC(=N)N)C(=O)N[C@@H](C)C(=O)NCC(=O)NCC(=O)NCC(=O)NCC(=O)N[C@@H](CCCNC(=N)N)C(=O)NCC(=O)N[C@@H](CC(=O)O)C(=O)O [X58] (X8-RGADRAGGGGRGD-OH)
10 | 30200 ± 7290 | 54.1 ± 11.7 | 0.552 | 2251 ± 15 |  |  | C[C@H](NC(=O)CNC(=O)[C@H](CCCNC(=N)N)NC(=O)CCCCCOCCOCCN1C(=O)C=CC1=O)C(=O)N[C@@H](CC(=O)O)C(=O)N[C@@H](CCCNC(=N)N)C(=O)N[C@@H](C)C(=O)NCC(=O)NCC(=O)NCC(=O)NCC(=O)N[C@@H](CCCNC(=N)N)C(=O)NCC(=O)N[C@@H](CC(=O)O)C(=O)O [X60] (X2-RGADRAGGGGRGD-OH)
